Measured values taken from US20250213566A1, “PHARMACEUTICAL COMPOSITION FOR PREVENTING OR TREATING SKIN DISEASES CAUSED BY RADIATION IRRADIATION COMPRISING DARAPLADIB OR PHARMACEUTICALLY ACCEPTABLE SALT THEREOF AS ACTIVE INGREDIENT” (KOREA INSTITUTE OF RADIOLOGICAL & MEDICAL SCIENCES, priority 2022, published 2025).

Columns and labels:
SKH-1 hairless mice [1] = experiment: Skin moisture content (Corneometer), moisture loss (Tewameter) and skin pH after irradiation; assay type: in vivo; conditions: 40 Gy local irradiation; day 20 after irradiation; skin pH meter; FIG. 4
Experimental: In order to identify the effect of darapladib in improving radiation-induced skin damage, SKH-1 hairless mice, which has the most similar characteristics to the human skin layer, immune system, and vascular system, was used, and for the irradiated group, local irradiation was performed on the skin in a total of 40 Gy by irradiating two times by 20 Gy at intervals of 5 days. Darapladib was used to suppress radiation-induced skin damage, and subcutaneous injections were given at different concentrations (20 mg/kg and 40 mg/kg). In addition, in order to quantitatively observe the effect of darapladib in inhibiting radiation-induced skin damage, the moisture content, moisture loss, and pH level of the skin were measured on day 20 after irradiation. The moisture content in the skin was measured using Corneometer (Corneometer CM825, CK electronic GmbH, Germany), the moisture loss by Tewameter (TM300, CK electronic GmbH, Germany), and the pH level of the skin by a skin pH meter (pH905, CK electronic GmbH, Germany).

α-SMA = α-SMA expression in irradiated skin by IHC staining, immunofluorescence and Western blot; assay type: in vivo, mice; conditions: FIG. 7
Experimental: (§1) In order to identify the effect of darapladib in improving radiation-induced skin damage, SKH-1 hairless mice, which has the most similar characteristics to the human skin layer, immune system, and vascular system, was used, and for the irradiated group, local irradiation was performed on the skin in a total of 40 Gy by irradiating two times by 20 Gy at intervals of 5 days. Darapladib was used to suppress radiation-induced skin damage, and subcutaneous injections were given at different concentrations (20 mg/kg and 40 mg/kg).

collagen = experiment: Masson's trichrome staining of irradiated skin (collagen deposition); assay type: in vivo, mice; conditions: day 20 after irradiation, IR/Dara group, FIG. 6
Experimental: as §1

SKH-1 hairless mice [2] = experiment: Radiation-induced skin damage in SKH-1 hairless mice, appearance of skin; assay type: in vivo; conditions: day 20 after irradiation, FIG. 3
Experimental: as §1

vimentin = experiment: Vimentin expression in irradiated skin by immunohistochemistry; assay type: in vivo, mice; conditions: FIG. 8
Experimental: as §1, with “mg/kg). In addition, to identify the effect of darapladib on vimentin, which is another marker of fibrosis and applicable to immune diseases, immunohistochemistry (IHC) method was applied to stain the surface of the skin.” for “mg/kg).”

human fibroblasts = experiment: TGF-β-induced differentiation from fibroblasts to myofibroblasts, immunofluorescence staining of collagen; assay type: cell-based; conditions: TGF-β treated fibroblasts; darapladib 0.25 nM and 0.5 nM applied 1 hour before TGF-β; vs TGF-β treated group; FIG. 1
Experimental: To identify the effect of darapladib on suppression of differentiation from fibroblasts to myofibroblasts, used was a transforming growth factor-beta (TGF-β), a growth factor that induces differentiation from human fibroblasts to myofibroblasts. Darapladib was applied to the medium at low concentration (0.25 nM) and high concentration (0.5 nM) respectively 1 hour before TGF-β treatment and then fixed with 4% formaldehyde in a live state in a single-layer culture of fibroblasts, and immunofluorescence staining of collagen was performed, followed by visualization by confocal microscopy.

SKH-1 hairless mice [3] = experiment: Histological changes in irradiated skin, hematoxylin and eosin staining, Image J quantification of adipocytes; assay type: in vivo
Experimental: In order to identify the effect of darapladib in improving radiation-induced skin damage, SKH-1 hairless mice, which has the most similar characteristics to the human skin layer, immune system, and vascular system, was used, and for the irradiated group, local irradiation was performed on the skin in a total of 40 Gy by irradiating two times by 20 Gy at intervals of 5 days. Darapladib was used to suppress radiation-induced skin damage, and subcutaneous injections were given at different concentrations (20 mg/kg and 40 mg/kg). In addition, in order to observe the histological changes in the skin, the extracted tissues were embedded by undergoing a paraffin infiltration process, a 4 μm thinned section was prepared to undergo deparaffinization and hydration followed by staining with hematoxylin and eosin, and then tissue damage, blood vessel damage, and changes in the epidermis, dermis, and adipocyte layer of skin tissue were observed using an optical microscope. In addition, to quantify the degree of skin damage, the area and number of granules in which adipocytes are present were calculated and statistically analyzed using the Image J program.

[4] = irradiated skin sections, H&E, Dara+IR group, FIG. 5A

## CCN(CC)CCN(Cc1ccc(-c2ccc(C(F)(F)F)cc2)cc1)C(=O)Cn1c(SCc2ccc(F)cc2)nc(=O)c2c1CCC2 [darapladib]
SKH-1 hairless mice [1]
  skin pH: remained slightly acidic
α-SMA; IR/Dara group vs irradiated group
  expression of α-SMA: reduced expression of α-SMA compared to the irradiated group
α-SMA; high concentration, 40 mg/kg
  expression of α-SMA: expression level similar to that of the control group
collagen
  collagen fiber or thickness of the skin layer: restored to a level of the control group
SKH-1 hairless mice [2]; 40 Gy local irradiation (2 x 20 Gy), subcutaneous 20 mg/kg and 40 mg/kg, vs irradiated group
  fibrosis (chronic thickening of skin surface, red wounds, inflammation): remarkably reduced
SKH-1 hairless mice [2]; 40 Gy local irradiation, subcutaneous 40 mg/kg (high concentration)
  recovery of irradiated skin: recovery similar to that of the control group without irradiation
vimentin; IR/Dara group
  vimentin expression: decreased
vimentin; high concentration, 40 mg/kg
  vimentin expression: similarly to the control group
Human fibroblasts
  expression of collagen: decreased significantly
SKH-1 hairless mice [3]; [4]
  adipocyte granules: retained
  thickness of the epidermis and dermis of the skin: restored similar to the control group
SKH-1 hairless mice [3]; irradiated skin, Image J, FIGS. 5B and 5C
  area of adipocytes: significantly recovered
